Measured values reported in PMC2904477 (Biochemistry, 2010).

Assays:
wild-type CB1 receptor [1] = biological target: T1, wild-type CB1 receptor (Homo sapiens, UniProt P21554); conditions: [3H]CP55940 saturation binding, mean ± SEM
[2] = biological target: T2, L404A/F408A/F412A CB1 receptor (Homo sapiens, UniProt P21554, F408A/F412A/L404A); conditions: [3H]CP55940 saturation binding, mean ± SEM
F412A CB1 receptor = F412A CB1 receptor (Homo sapiens, UniProt P21554, F412A); conditions: [3H]CP55940 saturation binding
L404F/F412L CB1 receptor = L404F/F412L CB1 receptor (Homo sapiens, UniProt P21554, F412L/L404F); conditions: [3H]CP55940 saturation binding
[3] = biological target: T2, L404A/F408A/F412A CB1 receptor; conditions: CP55940 dose-response, mean ± SEM
wild-type CB1 receptor [4] = biological target: T1, wild-type CB1 receptor; conditions: CP55940 dose-response; wild-type receptor (reference)
F408A CB1 receptor = F408A CB1 receptor (Homo sapiens, UniProt P21554, F408A); conditions: [3H]CP55940 saturation binding
L404A CB1 receptor = L404A CB1 receptor (Homo sapiens, UniProt P21554, L404A); conditions: [3H]CP55940 saturation binding
L404F/F408L CB1 receptor = L404F/F408L CB1 receptor (Homo sapiens, UniProt P21554, F408L/L404F); conditions: [3H]CP55940 saturation binding
[5] = biological target: T3, K402Q/R405Q/R409Q CB1 receptor (Homo sapiens, UniProt P21554, K402Q/R405Q/R409Q); conditions: CP55940 dose-response, mean ± SEM
[6] = biological target: T3, K402Q/R405Q/R409Q CB1 receptor; conditions: [3H]CP55940 saturation binding, mean ± SEM

T1 sequence (P21554 whole entry): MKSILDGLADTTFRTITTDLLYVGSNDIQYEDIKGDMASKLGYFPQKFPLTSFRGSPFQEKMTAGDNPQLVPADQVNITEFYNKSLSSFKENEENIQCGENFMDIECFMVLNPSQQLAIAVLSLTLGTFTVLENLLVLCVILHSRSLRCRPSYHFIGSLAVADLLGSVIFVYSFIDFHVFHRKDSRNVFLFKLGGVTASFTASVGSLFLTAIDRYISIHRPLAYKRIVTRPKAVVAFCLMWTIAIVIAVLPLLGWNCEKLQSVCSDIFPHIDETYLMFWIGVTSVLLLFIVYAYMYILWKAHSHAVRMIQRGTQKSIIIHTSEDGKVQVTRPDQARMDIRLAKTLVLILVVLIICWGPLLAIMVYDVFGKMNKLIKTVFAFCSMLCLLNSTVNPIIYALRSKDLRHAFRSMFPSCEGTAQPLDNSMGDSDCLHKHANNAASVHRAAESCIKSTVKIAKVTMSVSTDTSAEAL
T3 sequence (P21554 whole entry K402Q/R405Q/R409Q): as the sequence (P21554 whole entry) above, with K402Q, R405Q, R409Q counted along it
T2 sequence (P21554 whole entry L404A/F408A/F412A): as the sequence (P21554 whole entry) above, with L404A, F408A, F412A counted along it
Chain of L404A CB1 receptor (P21554 whole entry L404A): as the sequence (P21554 whole entry) above, with L404A counted along it
Chain of L404F/F412L CB1 receptor (P21554 whole entry L404F/F412L): as the sequence (P21554 whole entry) above, with L404F, F412L counted along it
Chain of F412A CB1 receptor (P21554 whole entry F412A): as the sequence (P21554 whole entry) above, with F412A counted along it
Chain of F408A CB1 receptor (P21554 whole entry F408A): as the sequence (P21554 whole entry) above, with F408A counted along it
Chain of L404F/F408L CB1 receptor (P21554 whole entry L404F/F408L): as the sequence (P21554 whole entry) above, with L404F, F408L counted along it

CCCCCCC(C)(C)c1ccc([C@@H]2C[C@H](O)CC[C@H]2CCCO)c(O)c1 [CP55940, (1R,3R,4R)-3-[2-hydroxy-4-(1,1-dimethylheptyl)phenyl]-4-(3-hydroxypropyl)cyclohexan-1-ol]
Bmax (wild-type CB1 receptor [1]): 3499 ± 129 fmol/mg | Bmax [2]: 867 ± 80 fmol/mg | Bmax (F412A CB1 receptor): 4062 ± 80 fmol/mg | Bmax (L404F/F412L CB1 receptor): 4531 ± 177 fmol/mg | GTPγS Emax [3]: 14.4 ± 1.9 % WT | GTPγS Emax (wild-type CB1 receptor [4]): 100.0 % WT | Bmax (F408A CB1 receptor): 4133 ± 105 fmol/mg | Bmax (L404A CB1 receptor): 3158 ± 135 fmol/mg | Bmax (L404F/F408L CB1 receptor): 4523 ± 239 fmol/mg | GTPγS Emax [5]: 80.6 ± 2.0 % WT | Bmax [6]: 3118 ± 142 fmol/mg
